# Measured values as given in US9597407B2, “Targeted antimicrobial moieties” (C3 Jian, Inc., priority 2009, dated 2017).
# “Also recorded” adds a separate entry of the source.
# System: bacteria
# Test: Binding of targeting peptides to microorganisms (Table 3)
# Settings: microorganism the targeting peptide binds; binding in aqueous buffers that varied with peptide solubility, preferably 1x PBS
row,Substance,Target(s)
1,1T-188 (HRKDVYKK; Peptide with targeting and/or antimicrobial activity) [Peptide 1T-188],S. sanguinis
2,1T-192 (ILVLLALQVELDSKFQY; Peptide with targeting and/or antimicrobial activity) [Peptide 1T-192],S. sanguinis
3,1T-193 (LMIFDKHANLKYKYGNRSFGVEAIM; Peptide with targeting and/or antimicrobial activity) [Peptide 1T-193],S. sanguinis
4,1T-195 (AASGFTYCASNGVWHPY; Peptide with targeting and/or antimicrobial activity) [Peptide 1T-195],S. mutans
5,1T-196 (KPEKEKLDTNTLMKVVNKALSLFDRLLIKFGA; Peptide with targeting and/or antimicrobial activity) [Peptide 1T-196],F. nucleatum; also recorded: S. sanguinis
6,1T-198 (MPVSKKRYMLSSAYATALGICYGQVATDEKESEITAIPDLLDYLSVEEYLL; Peptide with targeting and/or antimicrobial activity) [Peptide 1T-198],P. gingivalis; also recorded: S. epidermidis; also recorded: S. gordonii; also recorded: S. mitis; also recorded: S. mutans; also recorded: S. oralis; also recorded: S. sanguinis
7,1T-199 (RAGRIKKLSQKEAEPFEN; Peptide with targeting and/or antimicrobial activity) [Peptide 1T-199],S. sanguinis
8,1T-201 (KRKHENVIVAEEMRVIKN; Peptide with targeting and/or antimicrobial activity) [Peptide 1T-201],S. sanguinis
9,1T-207 (SPLEKYGTGSMTALTFLLGCCLLVLSKKSR; Peptide with targeting and/or antimicrobial activity) [Peptide 1T-207],F. nucleatum; also recorded: S. sanguinis

# Same assay, conditions: peptide binding in aqueous buffers varied by peptide solubility; preferably 1x PBS
row,Substance,Target(s) (microorganism bound by the targeting peptide)
1,1T-100 (LDPLEPRIAPPGDRSHQGAPACHRDPLRGRSARDAER; Peptide with targeting and/or antimicrobial activity) [Peptide 1T-100],S. gordonii; also recorded: S. mitis; also recorded: S. mutans
2,1T-101 (RLRVGRATDLPLTSFAVGVVRNLPDAPAH; Peptide with targeting and/or antimicrobial activity) [Peptide 1T-101],A. naeslundii; also recorded: P. gingivalis; also recorded: S. epidermidis; also recorded: S. gordonii; also recorded: S. mitis; also recorded: S. mutans; also recorded: S. oralis; also recorded: S. sanguinis
3,1T-104 (RAVAAHLQGRHHGHQVRRQRHGQR; Peptide with targeting and/or antimicrobial activity) [Peptide 1T-104],S. mitis
4,1T-105 (GEGLPPPVLHLPPPRMSGR; Peptide with targeting and/or antimicrobial activity) [Peptide 1T-105],S. epidermidis; also recorded: S. gordonii; also recorded: S. mitis; also recorded: S. mutans; also recorded: S. oralis
5,1T-106 (DALRRSRSQGRRHR; Peptide with targeting and/or antimicrobial activity) [Peptide 1T-106],S. gordonii; also recorded: S. mitis; also recorded: S. mutans; also recorded: S. oralis; also recorded: S. salivarious
6,1T-107 (SPVPRFTAVGGVSRGSP; Peptide with targeting and/or antimicrobial activity) [Peptide 1T-107],A. naeslundii; also recorded: S. epidermidis; also recorded: S. gordonii; also recorded: S. mitis; also recorded: S. mutans; also recorded: S. oralis; also recorded: S. salivarious; also recorded: S. sanguinis
7,1T-108 (WGPLGPERPLW; Peptide with targeting and/or antimicrobial activity) [Peptide 1T-108],S. gordonii; also recorded: S. mitis; also recorded: S. mutans; also recorded: S. oralis; also recorded: S. salivarious; also recorded: S. sanguinis
8,1T-109 (VTTNVRQGAGS; Peptide with targeting and/or antimicrobial activity) [Peptide 1T-109],A. naeslundii; also recorded: S. epidermidis; also recorded: S. gordonii; also recorded: S. mitis; also recorded: S. mutans; also recorded: S. oralis; also recorded: S. salivarious; also recorded: S. sanguinis
9,1T-110 (LAAKTAVCVGRAFM; Peptide with targeting and/or antimicrobial activity) [Peptide 1T-110],A. naeslundii; also recorded: P. gingivalis; also recorded: S. epidermidis; also recorded: S. gordonii; also recorded: S. mitis; also recorded: S. mutans; also recorded: S. oralis; also recorded: S. sanguinis
10,1T-112 (SDNDGKLILGTSQ; Peptide with targeting and/or antimicrobial activity) [Peptide 1T-112],S. gordonii
11,1T-113 (HGAHQRTGQRLHHHRGRTVSGCRQNPVAGVDPDEHR; Peptide with targeting and/or antimicrobial activity) [Peptide 1T-113],S. mitis
12,1T-114 (RQAPGPGLVTITAACSAPGSRSR; Peptide with targeting and/or antimicrobial activity) [Peptide 1T-114],A. naeslundii; also recorded: P. gingivalis; also recorded: S. epidermidis; also recorded: S. gordonii; also recorded: S. mitis; also recorded: S. mutans; also recorded: S. oralis; also recorded: S. sanguinis
13,1T-117 (GPGVVGPAPFSRLPAHALNL; Peptide with targeting and/or antimicrobial activity) [Peptide 1T-117],S. mutans
14,1T-119 (SPATQKAPTRAQPSRAPVQDCGDGRPTAAPDDVERLSPR; Peptide with targeting and/or antimicrobial activity) [Peptide 1T-119],S. gordonii; also recorded: S. mitis; also recorded: S. mutans; also recorded: S. oralis
15,1T-121 (FAKETGFGIGGAQEGWWIIADIYGPNPF; Peptide with targeting and/or antimicrobial activity) [Peptide 1T-121],S. gordonii; also recorded: S. mitis; also recorded: S. mutans; also recorded: S. oralis; also recorded: S. salivarious; also recorded: S. sanguinis
16,1T-122 (GAIPDPVTHRVDWEEDHQTRPSR; Peptide with targeting and/or antimicrobial activity) [Peptide 1T-122],S. mitis
17,1T-123 (LVRRNAVAGRSDGLAGAEQLDLVRLQGVL; Peptide with targeting and/or antimicrobial activity) [Peptide 1T-123],S. gordonii
18,1T-124 (LFDERNKIA; Peptide with targeting and/or antimicrobial activity) [Peptide 1T-124],S. mitis; also recorded: S. mutans; also recorded: S. oralis
19,1T-125 (DAITGGNPPLSDTDGLRP; Peptide with targeting and/or antimicrobial activity) [Peptide 1T-125],S. epidermidis; also recorded: S. gordonii; also recorded: S. mutans; also recorded: S. oralis
20,1T-126 (QGLARPVLRRIPL; Peptide with targeting and/or antimicrobial activity) [Peptide 1T-126],S. gordonii; also recorded: S. mitis; also recorded: S. mutans
21,1T-139 (AVAGAAVGALLGNDARSTAVGAAIGGALGAGAGELTKNK; Peptide with targeting and/or antimicrobial activity) [Peptide 1T-139],A. naeslundii; also recorded: S. gordonii; also recorded: S. mitis; also recorded: S. mutans; also recorded: S. oralis
22,1T-141 (KKFIILLFILVQGLIFSATKTLSDIIAL; Peptide with targeting and/or antimicrobial activity) [Peptide 1T-141],F. nucleatum; also recorded: P. gingivalis; also recorded: S. epidermidis; also recorded: S. gordonii; also recorded: S. mitis; also recorded: S. mutans; also recorded: S. oralis; also recorded: S. sanguinis
23,1T-145 (VEAGKRNISLENIEKISKGLGISISELFKYIEEGEDKIG; Peptide with targeting and/or antimicrobial activity) [Peptide 1T-145],S. mitis; also recorded: S. mutans; also recorded: S. oralis
24,1T-154 (YFSFLEIVGMARR; Peptide with targeting and/or antimicrobial activity) [Peptide 1T-154],P. gingivalis
25,1T-159 (IFSLHHFALICSEMGTFAVSKRAKYKWEVL; Peptide with targeting and/or antimicrobial activity) [Peptide 1T-159],P. gingivalis
26,1T-170 (AYGKVFSMDIMLSENDKLIVLRISHHSAWH; Peptide with targeting and/or antimicrobial activity) [Peptide 1T-170],P. gingivalis
27,1T-177 (GTNVPTQILGYSREERFDYEPAPEQR; Peptide with targeting and/or antimicrobial activity) [Peptide 1T-177],P. gingivalis; also recorded: S. gordonii; also recorded: S. mitis; also recorded: S. mutans; also recorded: S. oralis; also recorded: S. salivarious; also recorded: S. sanguinis
28,1T-185 (HYHFLLEFGFHKGDYLE; Peptide with targeting and/or antimicrobial activity) [Peptide 1T-185],A. naeslundii; also recorded: F. nucleatum; also recorded: P. gingivalis
